Test results as given in patent publication US7153676B1, “Transacylases of the paclitaxel biosynthetic pathway” (priority 1999, dated 2006).
“And” between values parts separate entries of the source, which are not always exact repeats. Equal values may be shown once.

Columns and labels:
[1] = molecular target: T1, 10-deacetylbaccatin III-10-O-acetyl transferase (TAX6) (Taxus cuspidata, UniProt Q9M6E2); format: biochemical; details: for conversion/acetylation of substrate by TAX6: 10-hydroxyl of 10-deacetylbaccatin III, 5α-hydroxyl of taxadienol
T1 construct: to amplify the putative full-length acetyl transferase gene and incorporate NdeI and XbaI restriction sites; made in house; host or cells: E. coli JM109 (pCWori+)
T1 sequence (Q9M6E2 1-440): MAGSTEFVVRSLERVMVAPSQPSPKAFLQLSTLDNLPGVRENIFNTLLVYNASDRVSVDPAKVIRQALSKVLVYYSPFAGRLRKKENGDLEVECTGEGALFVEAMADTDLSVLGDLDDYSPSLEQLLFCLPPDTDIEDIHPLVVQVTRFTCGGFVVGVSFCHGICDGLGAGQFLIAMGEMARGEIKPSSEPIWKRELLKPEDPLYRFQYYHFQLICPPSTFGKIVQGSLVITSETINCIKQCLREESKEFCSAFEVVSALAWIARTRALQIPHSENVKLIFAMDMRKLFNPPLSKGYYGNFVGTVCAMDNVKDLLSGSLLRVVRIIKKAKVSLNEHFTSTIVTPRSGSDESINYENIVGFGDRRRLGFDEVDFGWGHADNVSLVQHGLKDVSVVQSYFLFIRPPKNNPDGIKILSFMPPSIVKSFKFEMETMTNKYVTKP
Description: For the enzyme preparation, E. coli cells transformed with the pCWori+ vector harboring the putative DBAT gene were grown overnight at 37° C. in 5 mL Luria-Bertani medium supplemented with ampicillin, and 1 mL of this inoculum was added to and grown in 100 mL Terrific Broth culture medium (6 g bacto-tryptone, Difco Laboratories, Spark, Md., 12 g yeast extract, EM Science, Cherryhill, N.J., and 2 mL gycerol in 500 mL water) supplemented with 1 mM IPTG, 1 mM thiamine HCl and 50 μg ampicillin/mL. After 24 hours, the bacteria were harvested by centrifugation, resuspended in 20 mL of assay buffer (25 mM Mopso, pH 7.4) and then disrupted by sonication at 0–4° C. The resulting homogenate was centrifuged at 15,000 g to remove debris, and a 1 mL aliquot of the supernatant was incubated with 10-deacetylbaccatin III (400 μM) and [2-^3H]acetyl coenzyme A (0.45μCi, 400 μM) for 1 hour at 31° C. The reaction mixture was extracted with ether and the solvent concentrated in vacuo. The crude product (pooled from five such assays) was purified by silica gel thin-layer chromatography (TLC; 70:30 ethyl acetate:hexane).
The activity of TAX6 (SEQ ID NO: 45) was assayed under standard conditions described in Walker et al., Arch. Biochem. Biophys.

[2] = system: acetyl CoA:taxadien-5α-ol O-acetyl transacylase; details: cited from earlier work; for Km: cosubstrate of the taxadienol acetyl transacylase; for acetylation by the enzyme (substrate selectivity): more advanced paclitaxel precursors

SMILES	conversion/acetylation of substrate by TAX6 [1]	Km [2]	acetylation by the enzyme (substrate selectivity) [2]	other results
C=C1[C@H]2C[C@@H]3CCC(C)=C(CC[C@]2(C)CC[C@@H]1O)C3(C)C [taxadienol, taxa-4(20),11(12)-dien-5α-ol]	nor does it acetylate	4.2 µM and 4 µM	–	–
CC(=O)O[C@H]1C(=O)[C@@]2(C)[C@H]([C@H](OC(=O)c3ccccc3)[C@]3(O)C[C@H](O)C(C)=C1C3(C)C)[C@]1(OC(C)=O)CO[C@@H]1C[C@@H]2O [baccatin III]	–	–	does not acetylate	–
CC(=O)SCCNC(=O)CCNC(=O)[C@H](O)C(C)(C)COP(=O)(O)OP(=O)(O)OC[C@H]1O[C@@H](n2cnc3c(N)ncnc32)[C@H](O)[C@@H]1OP(=O)(O)O [acetyl CoA]	–	5.5 µM and 6 µM	–	–
CC(C)(COP(=O)(O)OP(=O)(O)OC[C@H]1O[C@@H](n2cnc3c(N)ncnc32)[C@H](O)[C@@H]1OP(=O)(O)O)[C@@H](O)C(=O)NCCC(=O)NCCS [Co-enzyme A]	–	–	–	inhibition of the enzyme [2]: only weakly inhibited
CC(=O)O[C@@]12CO[C@@H]1C[C@H](O)[C@@]1(C)C(=O)[C@H](O)C3=C(C)[C@@H](O)C[C@@](O)([C@@H](OC(=O)c4ccccc4)[C@H]21)C3(C)C [10-deacetylbaccatin III]	catalyze the conversion	–	does not acetylate	Km [1]: 10 µM; acetylation of the 1β-, 7β-, or 13α-hydroxyl groups by TAX6 ([1]; regioselectivity): does not acetylate
